# Experimental data: patent US20100099561A1, “HETEROBICYCLIC ALKYLTHIO-BRIDGED ISOXAZOLINES” (E.I. DU PONT DE NEMOURS AND COMPANY, priority 2008, published 2010)
# Experiments:
# Assay type in all cases: in vivo
# [1] = tested on: wheat (Triticum aestivum); assay: Test A postemergence, wheat; conditions: 0 to 100 scale (0 no effect, 100 complete control)
# Summary of the method: (§1)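 Ratings of 0–100 (0 no effect, 100 complete control) came from visual comparison with untreated controls after roughly ten days in a greenhouse. Plants in loam soil–sand blend were treated with compound in non-phytotoxic solvent plus surfactant, pre- or postemergence (one- to two-leaf stage).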
# corn (Zea mays) [2] = assay: Test A preemergence, corn; conditions: 0 to 100 scale (0 no effect, 100 complete control)
# Summary of the method: as §1
# [3] = tested on: morningglory (Ipomoea spp.); assay: Test A postemergence, morningglory; conditions: 0 to 100 scale (0 no effect, 100 complete control)
# Summary of the method: as §1
# [4] = tested on: large crabgrass (Digitaria sanguinalis); assay: Test A postemergence, large crabgrass; conditions: 0 to 100 scale (0 no effect, 100 complete control)
# Summary of the method: as §1
# [5] = tested on: morningglory (Ipomoea spp.); assay: Test A preemergence, morningglory; conditions: 0 to 100 scale (0 no effect, 100 complete control)
# Summary of the method: as §1
# [6] = tested on: barnyardgrass (Echinochloa crus-galli); assay: Test B flooded paddy test, barnyardgrass; conditions: Flood
# Summary of the method: (§2)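 2-leaf plants; pots flooded 3 cm above soil; compound added to paddy water; depth maintained. Greenhouse 13–15 d. Visual rating vs controls, 0 (no effect) to 100 (complete control); dash = no result.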
# [7] = tested on: pigweed (Amaranthus retroflexus); assay: Test A postemergence, pigweed; conditions: 0 to 100 scale (0 no effect, 100 complete control)
# Summary of the method: as §1
# [8] = tested on: velvetleaf (Abutilon theophrasti); assay: Test A postemergence, velvetleaf; conditions: 0 to 100 scale (0 no effect, 100 complete control)
# Summary of the method: as §1
# [9] = tested on: large crabgrass (Digitaria sanguinalis); assay: Test A preemergence, large crabgrass; conditions: 0 to 100 scale (0 no effect, 100 complete control)
# Summary of the method: as §1
# [10] = tested on: ducksalad (Heteranthera limosa); assay: Test B flooded paddy test, ducksalad; conditions: Flood, scale 0 to 100
# Summary of the method: as §2
# [11] = tested on: velvetleaf (Abutilon theophrasti); assay: Test A preemergence, velvetleaf; conditions: 0 to 100 scale (0 no effect, 100 complete control)
# Summary of the method: as §1
# [12] = tested on: barnyardgrass (Echinochloa crus-galli); assay: Test A preemergence, barnyardgrass; conditions: 0 to 100 scale (0 no effect, 100 complete control)
# Summary of the method: as §1
# [13] = tested on: giant foxtail (Setaria faberi); assay: Test A postemergence, giant foxtail; conditions: 0 to 100 scale (0 no effect, 100 complete control)
# Summary of the method: as §1
# rice (Oryza sativa) = assay: Test B flooded paddy test, rice; conditions: Flood, scale 0 to 100
# Summary of the method: as §2
# [14] = tested on: umbrella sedge (Cyperus difformis); assay: Test B flooded paddy test, umbrella sedge; conditions: Flood, scale 0 to 100
# Summary of the method: as §2
# corn (Zea mays) [15] = assay: Test A postemergence, corn; conditions: 0 to 100 scale (0 no effect, 100 complete control)
# Summary of the method: as §1
# [16] = tested on: pigweed (Amaranthus retroflexus); assay: Test A preemergence, pigweed; conditions: 0 to 100 scale (0 no effect, 100 complete control)
# Summary of the method: as §1
# [17] = tested on: wheat (Triticum aestivum); assay: Test A preemergence, wheat; conditions: 0 to 100 scale (0 no effect, 100 complete control)
# Summary of the method: as §1
# [18] = tested on: giant foxtail (Setaria faberi); assay: Test A preemergence, giant foxtail; conditions: 0 to 100 scale (0 no effect, 100 complete control)
# Summary of the method: as §1
# [19] = tested on: barnyardgrass (Echinochloa crus-galli); assay: Test A postemergence, barnyardgrass; conditions: 0 to 100 scale (0 no effect, 100 complete control)
# Summary of the method: as §1
# [20] = 250 g ai/ha, scale 0 to 100 (0 no effect, 100 complete control)
structure (smiles),measurement,setting,value
CC1(C)CC([S+]([O-])Cc2c(C(F)(F)C(F)(F)F)nc3n(c2=O)CCS3)=NO1 (centres unmarked) [Compound 41],"Plant response rating, Wheat",[1]; 125 g ai/ha,0
same,"Plant response rating, Wheat",[1]; 500 g ai/ha,40
same,"Plant response rating, Corn",corn (Zea mays) [2]; 125 g ai/ha,0
same,"Plant response rating, Corn",corn (Zea mays) [2]; 500 g ai/ha,0
same,"Plant response rating, Morningglory",[3]; 125 g ai/ha,0
same,"Plant response rating, Morningglory",[3]; 500 g ai/ha,10
same,"Plant response rating, Crabgrass, Large",[4]; 125 g ai/ha,0
same,"Plant response rating, Crabgrass, Large",[4]; 500 g ai/ha,50
same,"Plant response rating, Morningglory",[5]; 500 g ai/ha,0
same,"Plant response rating, Barnyardgrass","[6]; 31 g ai/ha, scale 0 to 100",0
same,"Plant response rating, Barnyardgrass","[6]; 62 g ai/ha, scale 0 to 100",0
same,"Plant response rating, Barnyardgrass","[6]; 125 g ai/ha, scale 0 to 100",0
same,"Plant response rating, Barnyardgrass",[6]; [20],0
same,"Plant response rating, Pigweed",[7]; 125 g ai/ha,0
same,"Plant response rating, Pigweed",[7]; 500 g ai/ha,0
same,"Plant response rating, Velvetleaf",[8]; 125 g ai/ha,0
same,"Plant response rating, Velvetleaf",[8]; 500 g ai/ha,0
same,"Plant response rating, Crabgrass, Large",[9]; 125 g ai/ha,0
same,"Plant response rating, Crabgrass, Large",[9]; 500 g ai/ha,80
same,"Plant response rating, Ducksalad",[10]; 31 g ai/ha,0
same,"Plant response rating, Ducksalad",[10]; 62 g ai/ha,0
same,"Plant response rating, Ducksalad",[10]; 125 g ai/ha,0
same,"Plant response rating, Ducksalad",[10]; 250 g ai/ha,0
same,"Plant response rating, Velvetleaf",[11]; 125 g ai/ha,0
same,"Plant response rating, Velvetleaf",[11]; 500 g ai/ha,0
same,"Plant response rating, Barnyardgrass",[12]; 125 g ai/ha,0
same,"Plant response rating, Barnyardgrass",[12]; 500 g ai/ha,60
same,"Plant response rating, Foxtail, Giant",[13]; 125 g ai/ha,10
same,"Plant response rating, Foxtail, Giant",[13]; 500 g ai/ha,60
same,"Plant response rating, Rice",rice (Oryza sativa); 31 g ai/ha,0
same,"Plant response rating, Rice",rice (Oryza sativa); 62 g ai/ha,0
same,"Plant response rating, Rice",rice (Oryza sativa); 125 g ai/ha,0
same,"Plant response rating, Rice",rice (Oryza sativa); 250 g ai/ha,0
same,"Plant response rating, Sedge, Umbrella",[14]; 31 g ai/ha,0
same,"Plant response rating, Sedge, Umbrella",[14]; 62 g ai/ha,0
same,"Plant response rating, Sedge, Umbrella",[14]; 125 g ai/ha,0
same,"Plant response rating, Sedge, Umbrella",[14]; 250 g ai/ha,0
same,"Plant response rating, Corn",corn (Zea mays) [15]; 125 g ai/ha,0
same,"Plant response rating, Corn",corn (Zea mays) [15]; 500 g ai/ha,40
same,"Plant response rating, Pigweed",[16]; 125 g ai/ha,0
same,"Plant response rating, Pigweed",[16]; 500 g ai/ha,0
same,"Plant response rating, Wheat",[17]; 125 g ai/ha,0
same,"Plant response rating, Wheat",[17]; 500 g ai/ha,0
same,"Plant response rating, Foxtail, Giant",[18]; 125 g ai/ha,0
same,"Plant response rating, Foxtail, Giant",[18]; 500 g ai/ha,80
same,"Plant response rating, Barnyardgrass",[19]; 125 g ai/ha,30
same,"Plant response rating, Barnyardgrass",[19]; 500 g ai/ha,70
CC1(C)CC(S(=O)(=O)Cc2c(C(F)(F)F)nc3ccon3c2=O)=NO1 [Compound 42],"Plant response rating, Wheat",[1]; 125 g ai/ha,0
same,"Plant response rating, Wheat",[1]; 500 g ai/ha,20
same,"Plant response rating, Corn",corn (Zea mays) [2]; 125 g ai/ha,0
same,"Plant response rating, Corn",corn (Zea mays) [2]; 500 g ai/ha,0
same,"Plant response rating, Morningglory",[3]; 125 g ai/ha,0
same,"Plant response rating, Morningglory",[3]; 500 g ai/ha,0
same,"Plant response rating, Crabgrass, Large",[4]; 125 g ai/ha,50
same,"Plant response rating, Crabgrass, Large",[4]; 500 g ai/ha,70
same,"Plant response rating, Morningglory",[5]; 125 g ai/ha,0
same,"Plant response rating, Morningglory",[5]; 500 g ai/ha,0
same,"Plant response rating, Barnyardgrass","[6]; 31 g ai/ha, scale 0 to 100",0
same,"Plant response rating, Barnyardgrass","[6]; 62 g ai/ha, scale 0 to 100",0
same,"Plant response rating, Barnyardgrass","[6]; 125 g ai/ha, scale 0 to 100",0
same,"Plant response rating, Barnyardgrass",[6]; [20],0
same,"Plant response rating, Pigweed",[7]; 125 g ai/ha,0
same,"Plant response rating, Pigweed",[7]; 500 g ai/ha,10
same,"Plant response rating, Velvetleaf",[8]; 125 g ai/ha,0
same,"Plant response rating, Velvetleaf",[8]; 500 g ai/ha,0
same,"Plant response rating, Crabgrass, Large",[9]; 125 g ai/ha,50
same,"Plant response rating, Crabgrass, Large",[9]; 500 g ai/ha,80
same,"Plant response rating, Ducksalad",[10]; 31 g ai/ha,0
same,"Plant response rating, Ducksalad",[10]; 62 g ai/ha,0
same,"Plant response rating, Ducksalad",[10]; 125 g ai/ha,0
same,"Plant response rating, Ducksalad",[10]; 250 g ai/ha,0
same,"Plant response rating, Velvetleaf",[11]; 125 g ai/ha,0
same,"Plant response rating, Velvetleaf",[11]; 500 g ai/ha,0
same,"Plant response rating, Barnyardgrass",[12]; 125 g ai/ha,30
same,"Plant response rating, Barnyardgrass",[12]; 500 g ai/ha,80
same,"Plant response rating, Foxtail, Giant",[13]; 125 g ai/ha,60
same,"Plant response rating, Foxtail, Giant",[13]; 500 g ai/ha,80
same,"Plant response rating, Rice",rice (Oryza sativa); 31 g ai/ha,0
same,"Plant response rating, Rice",rice (Oryza sativa); 62 g ai/ha,0
same,"Plant response rating, Rice",rice (Oryza sativa); 125 g ai/ha,0
same,"Plant response rating, Rice",rice (Oryza sativa); 250 g ai/ha,0
same,"Plant response rating, Sedge, Umbrella",[14]; 31 g ai/ha,0
same,"Plant response rating, Sedge, Umbrella",[14]; 62 g ai/ha,0
same,"Plant response rating, Sedge, Umbrella",[14]; 125 g ai/ha,0
same,"Plant response rating, Sedge, Umbrella",[14]; 250 g ai/ha,0
same,"Plant response rating, Corn",corn (Zea mays) [15]; 125 g ai/ha,0
same,"Plant response rating, Corn",corn (Zea mays) [15]; 500 g ai/ha,0
same,"Plant response rating, Pigweed",[16]; 125 g ai/ha,0
same,"Plant response rating, Pigweed",[16]; 500 g ai/ha,30
same,"Plant response rating, Wheat",[17]; 125 g ai/ha,0
same,"Plant response rating, Wheat",[17]; 500 g ai/ha,0
same,"Plant response rating, Foxtail, Giant",[18]; 125 g ai/ha,60
same,"Plant response rating, Foxtail, Giant",[18]; 500 g ai/ha,90
same,"Plant response rating, Barnyardgrass",[19]; 125 g ai/ha,70
same,"Plant response rating, Barnyardgrass",[19]; 500 g ai/ha,80
